Values quoted from earlier work as cited in paper PMC3325405 (Amino Acids, 2011).

Molecular target: Klebsiella aerogenes enzyme (urease)
Settings: read-out: K i, Klebsiella aerogenes urease; ref Todd 1989

Ki: 2.6 µM
SMILES: CC(=O)NO [AHA, acetohydroxamic acid]
